Test results as given in ChEMBL document CHEMBL1795230, “Conformational variability of different sulfonamide inhibitors with thienyl-acetamido moieties attributes to differential binding in the active site of cytosolic human carbonic anhydrase isoforms” (Bioorg Med Chem, 2011).

Tests used:
[1] = molecular target: Carbonic anhydrase 13 (Homo sapiens, UniProt Q8N1Q1)
[2] = molecular target: Carbonic anhydrase 3 (Homo sapiens, UniProt P07451)
Carbonic anhydrase 3, sequence (P07451 whole entry): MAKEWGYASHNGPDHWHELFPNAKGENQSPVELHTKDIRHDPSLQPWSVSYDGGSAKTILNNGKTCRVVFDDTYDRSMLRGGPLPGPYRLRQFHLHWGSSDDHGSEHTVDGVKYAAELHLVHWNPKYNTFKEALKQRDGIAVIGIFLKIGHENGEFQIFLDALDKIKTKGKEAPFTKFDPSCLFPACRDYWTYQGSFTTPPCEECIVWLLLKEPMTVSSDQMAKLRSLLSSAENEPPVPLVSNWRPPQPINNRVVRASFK

Carbonic anhydrase 13, sequence (Q8N1Q1 whole entry): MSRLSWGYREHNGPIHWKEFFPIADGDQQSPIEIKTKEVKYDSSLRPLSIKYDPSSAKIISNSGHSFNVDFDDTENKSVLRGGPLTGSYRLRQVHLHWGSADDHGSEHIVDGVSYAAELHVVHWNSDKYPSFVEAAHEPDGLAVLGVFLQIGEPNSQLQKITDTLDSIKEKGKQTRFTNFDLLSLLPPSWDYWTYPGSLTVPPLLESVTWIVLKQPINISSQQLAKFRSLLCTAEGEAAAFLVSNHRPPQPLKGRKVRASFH

Ki [1] [nM] | Ki [2] [nM] | SMILES
23 | – | NS(=O)(=O)c1cc(Cl)c(Cl)c(S(N)(=O)=O)c1 [DICHLORPHENAMIDE]
125 | 800000 | NS(=O)(=O)c1ccc(NC(=O)Cc2cccs2)cc1
